Experimental data reported in PubChem BioAssay (NCI).
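Growth conditions: 96-well plates. Treatment: test compound, 48 hours, 5 concentrations. Analysis: linear interpolation between bracketing concentrations; unreached endpoints set to highest concentration. The concentration for 50% growth inhibition is given as GI50. TGI: concentration producing complete growth inhibition.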

Assays:
Experiment in all cases: NCI-60 cell line screen, 48 h
[1] = system: HCC-2998 colon
[2] = system: UO-31 renal
[3] = system: U251 CNS
[4] = system: SF-295 CNS
[5] = system: OVCAR-4 ovarian
[6] = system: LOX IMVI melanoma
[7] = system: SNB-19 CNS
[8] = system: COLO 205 colon
[9] = system: SK-OV-3 ovarian
[10] = system: MCF7 breast

SMILES	GI50 [1] [µM]	TGI [1] [µM]	GI50 [2] [µM]	TGI [2] [µM]	GI50 [3] [µM]	TGI [3] [µM]	GI50 [4] [µM]	TGI [4] [µM]	GI50 [5] [µM]	TGI [5] [µM]	GI50 [6] [µM]	TGI [6] [µM]	GI50 [7] [µM]	TGI [7] [µM]	GI50 [8] [µM]	TGI [8] [µM]	GI50 [9] [µM]	TGI [9] [µM]	GI50 [10] [µM]	TGI [10] [µM]
C=CCc1cc(Nc2c3ccc(Cl)cc3nc3ccc(OC)cc23)cc(CN(CC)CC)c1O	2.71	16.6	2.02	11	0.802	10.8	0.938	5.17	1.68	12.2	1.23	2.58	2.03	21.2	1.39	3	1.9	6.62	2.1	7.94
COc1ccc(/C=C(\C)[N+](=O)[O-])cc1OC	1.82	3.29	1.68	3.2	4.39	15.9	17.8	32.3	1.97	4.91	1.36	2.97	11.3	23.6	2.23	4.46	13.9	27.4	1.35	3.25
CC(=O)O[C@@H]1C[C@@]2(C)[C@@H]3CC=C4[C@@H](C[C@H](O)C(=O)C4(C)C)[C@]3(C)C(=O)C[C@]2(C)[C@H]1[C@@](C)(O)C(=O)/C=C/C(C)(C)OC(C)=O		16.5		0.881		10.5		34.1		> 32.3		> 33		7.38		> 39.7		51.5		> 100
CN1CCc2nc3sc(C(N)=O)c(N)c3c(-c3cccs3)c2C1	3.54	20.9	3.47	> 100	3.18	> 100	3.61	> 100	7.38	> 100	1.27	> 100	4.34	> 100	1.43	3.66	3.35	> 100	4.1	> 100
FC(F)(F)c1cccc(-c2nn3ncccc3c2-c2ccnc(Nc3ccc4c(c3)OCCO4)n2)c1	13	> 25	3.68	> 25	19.5	> 25	18.2	> 25	10.3	> 25	10	> 25	> 25	> 25	14.1	> 25	8.99	> 25	14.4	> 25
C[CH2][Hg][S]c1ccccc1C(=O)O	1.67	3.08	1.43	2.79	1.56	3.03	3.7	16.5	2.01	7	0.488	2.16	2.98	12.3	1.24	2.86	2.77	8.21	1.21	2.62
COc1ccc(Nc2ccnc(N3CCN(c4ccnc5cc(Cl)ccc45)CC3)n2)cc1	2.73	> 55.4	0.629	4.29	1.17	11.5	0.267	1.08	1.34	> 100	0.884	5.23	1.48	> 100	1.38	3.8	2.62	> 100	1.01	7.32
C=C1[C@@H](O)O[C@H]2[C@H]1C[C@H](OC(C)=O)[C@]13C(=O)O[C@H]4C[C@](C)(O)[C@H]([C@H]41)C31C=C(C)[C@]2(O)O1	22.5	76.2	27.2	74.1	24.2	64.7	4.03	> 100	> 100	> 100	29.6	> 100	> 100	> 100	48.9	> 100	> 100	> 100	25.8	54.7
c1cc(N2CCN(c3ccc(C4=NCCCN4)cc3)CC2)ccc1C1=NCCCN1		> 45.2	> 100	> 100	> 74.6	> 100	> 25.1	> 100	71.8	> 100		> 77.9	> 71.2	> 100	> 45.6	> 100	> 100	> 100	> 57.5	> 100
COc1cccc(Oc2ccccc2NC(=O)CNC(=O)c2cccc3ccccc23)c1	1.25	> 25	1.8	> 25	0.242	> 25	0.111	> 25	0.77	> 25	0.267	> 25	0.617	> 25	0.283	0.949	0.494	12.3	0.1	> 25
C1CSCCSCCCSCCSCCCSCCSCCCSCCSC1		> 100		> 100		> 100		> 100		> 100		> 100		> 100		> 100		> 100		> 100
CC(C)C[C@H](NC(=O)CCn1ccc2ccccc2c1=O)B(O)O	6.08	21.3	3.92	35.3	4.23	> 100	3.77	19.6	17	> 100	2.11	6.78	8.02	> 100	5.06	> 100	4.72	81.3	4.35	> 100
C=CCC1(C)CCCN(Cc2ccccc2)C1=O (configuration not stated)		> 10		> 10		> 10		> 10		> 10		> 10		> 10		> 10		> 10		> 10
O=C(CN1N=C(c2ccc(F)cc2)CCC1=O)Nc1nc2ccccc2s1	> 100	> 100	0.182	0.405	2.08	4.69	> 100	> 100	2.14		0.179	0.344	> 96.7	> 100	> 100	> 100	> 100	> 100	50.1	> 100
CC1c2ccccc2CCN1c1ccc(CO)c(Cl)c1 (configuration not stated)	2.95	17.6	14.6	65.3	0.318	> 46.1	0.274	31.4	0.049	2.7	22.2	49.8	34.5	> 100	0.19	0.626	1.61	10.7	0.0565	23.2
N#CCCNc1nonc1-c1nc2ccccc2n1CC(=O)c1ccc(NC(=O)[C@@H](N)CCCCN)cc1	0.0308	> 92.2	0.282	> 100	0.0445	> 100	0.016	> 100	0.0436	> 100	0.0513	> 100	> 100	> 100	0.0273	0.0709	0.0313	> 100	0.0302	> 100
COc1cc(C(=O)c2cc(C)c3[nH]c4ccc(O)cc4c3c2C)cc(OC)c1OC	0.03	> 37.9	0.269	> 100	0.0226	> 100	< 0.01	0.326	1.05	> 100	< 0.0143	> 100	0.0289	> 47.3	0.0298	0.11	0.267	98.6	< 0.01	> 44.4
